Key:
[1] = system: solid tumors; conditions: single agent, specific oncological indications; cited from earlier work
[2] = system: PS19 mice; assay: Immunohistochemistry of hippocampus of PS19 mice; type: in vivo, mouse
Description: FIG. 12A-12F illustrate reduced phospho-Tau accumulation in transgenic mice treated with AZD0530. FIG. 12A: Representative images of AT8 immunoreactivity in the dentate gyrus (DG) of the hippocampus in 9-month-old PS19 mice after 7 months of treatment with AZD0530 or Vehicle. Scale bar, […]. FIG. 12B: Quantification of AT8-positive area (%) in the dentate gyrus of the hippocampus in 9-month-old PS19 and WT mice after 7 months of treatment. Data are mean±SEM. n=7-10/group, each dot is one mouse. […] FIG. 12C: Representative images of immunofluorescent staining for AT8 in the CA1 of the hippocampus in 9-month-old PS19 and WT mice after 7 months of treatment. Scale bar, […]. FIG. 12D: Quantification of AT8-positive area in the CA1 of the hippocampus in 9-month-old PS19 and WT mice after 7 months of treatment. Data are mean±SEM. n=7-10/group, each dot is one mouse. […] FIG. 12E: Representative images of immunofluorescent staining for PHF1 in the CA1 of the hippocampus in 9-month-old PS19 and WT mice after 7 months of treatment. Scale bar, […]. FIG. 12F: Quantification of PHF1-positive area in the CA1 of the hippocampus in 9-month-old PS19 and WT mice after 7 months of treatment. Data are mean±SEM. n=7-10/group, each dot is one mouse.
FIGS. 13A-13D illustrate that chronic Fyn inhibition prevents glial activation in mutant Tau transgenic mice. FIG. 13A: Representative images of CD68 and Ibal double immunostaining in the CA3 region of the hippocampus from 9-month-old PS19 and WT mice after 7 months of treatment with AZD0530 or Vehicle. Scale bar, 20 μm. FIG. 13B: Quantification of CD68-positive area (%) within Ibal-immuoreative area in the CA3 segment of the hippocampus from 9-month-old PS19 and WT mice after 7 months of treatment. Data are as mean±SEM. n=7-10/group, each dot is one mouse. *p<0.05; One-way ANOVA with Dunnett's multiple comparisons test. FIG. 13C: Representative images of immunofluorescent staining GFAP in the dentate gyrus (DG) of the hippocampus in 9-month-old PS19 and WT mice after 7 months of treatment. Scale bar, 20 μm. FIG. 13D: Quantification of GFAP-positive area (%) in the dentate gyrus of the hippocampus in 9-month-old PS19 and WT mice after 7 months of treatment. n=7-10/group, each dot is one mouse. Data are mean±SEM. *p<0.05; One-way ANOVA with Dunnett's multiple comparisons test.
FIGS. 14A-14B illustrate the finding that loss of presynaptic marker SV2A in P301S Tau transgenic mice is rescued by Fyn inhibition. FIG. 14A: Representative images of immunofluorescent staining for SV2A in the CA3 region of the hippocampus from 9-month-old PS19 and WT mice after 7 months of treatment with AZD0530 or Vehicle. Dashed lines represent the divide between the cell body layer and synaptic region. The cell bodies in the image were used to capture similar ROI from each section. Scale bar, 20 μm. FIG. 14B: Quantification of SV2A-positive area (%) in the CA3 of the hippocampus in 9-month-old PS19 and WT mice after 7 months of treatment. Data are mean±SEM. n=7-10/group, each dot is one mouse.
FIGS. 19A-19D illustrate low magnification survey of gliosis in PS19 mice unaffected by AZD0530. FIG. 19A: Representative images of Ibal immunostaining in the hippocampus in 9-month-old PS19 and WT mice after 7 months of treatment. Scale bar, 100 m. FIG. 19B: Quantification of Ibal-positive area (%) in the hippocampus in 9-month-old PS19 and WT mice collected after 7 months of treatment. Data are mean±SEM. n=7-10/group. One-way ANOVA. FIG. 19C: Representative images of immunofluorescent staining GFAP in the hippocampus in 9-month-old PS19 and WT mice after 7 months of treatment. Scale bar, 100 μm. FIG. 19D: Quantification of GFAP-positive area (%) in the hippocampus in 9-month-old PS19 and WT mice collected after 7 months of treatment. Data are mean±SEM. n=7-10/group. One-way ANOVA.
Immunohistochemistry was performed as previously described (Kaufman et al., 2015, Ann Neurol 77:953-971) with slight modifications. […]

[3] = Dog toxicology studies (6 month and nine-month); type: in vivo
Description: The body weight of dogs treated with different doses of saracatinib was plotted as a function of time. There were a […] (4 female and 4 male in each group), but a single sex (male) is shown here because the weight range is different between sexes. The trend for female dogs is similar but not shown. Values are mean±sem.

[4] = system: APPswe/PS1ΔE9 transgenic mice; assay: Histology of AD transgenic mice (Aβ plaque, PSD-95, SV2A); type: in vivo, mouse; conditions: for synapse density (PSD-95, SV2A) in dentate gyrus: 5 weeks
Description: FIGS. 10A-10C illustrate the finding that synaptic markers recover after treatment with a Fyn inhibitor. […] FIG. 10A: Representative sections from the labeled groups were stained with anti-PSD-95 antibody and the molecular layer of the dentate gyrus was imaged with a confocal microscope with a 60× objective lens. Scale bar, 3 μm. FIG. 10B: Fractional area of immunoreactive puncta for PSD-95. p<0.05, ANOVA with post-hoc pairwise Tukey comparisons. Mean±SEM, n=5-10 mice per group, two images per mouse. FIG. 10C: Fractional area of immunoreactive puncta for SV2. p<0.05, ANOVA with post-hoc pairwise Fisher's least significant difference (LSD). Mean±SEM, n=5-10 mice per group, two images per mouse.
The animals were familiarized with two objects on the first day of testing, and then observed on the next day with one novel object and one familiar object. The time spent exploring each object was scored by an observed unaware of drug treatment (FIG. 5). WT mice spend more time with the novel object. However, vehicle-treated APPswe/PS1ΔE9 mice spent equal time with both objects, consistent with impaired memory of familiarization on the previous day. […] The tissue from these mice is analyzed histologically, e.g., for Aβ plaque and synaptic markers (which are reduced in the transgenic mice). […] Without wishing to be limited by theory, this finding is consistent with the fact that saracatinib blocks the downstream action of Aβo on neurons, but not the upstream production of Aβ.
Upon analysis of a post-synaptic marker (PSD-95) or a presynaptic marker (SV2A) in the dentate gyrus of the hippocampus, an saracatinib-induced restoration of synapse density was observed. The twelve-month old transgenic mice have lost approximately 30-40% of synapses by the immunohistological measures.

[5] = Dog exposure (Cmax and AUC) with oral dosing; type: in vivo
[6] = 9-month-old PS19 mice, 7 months of treatment

CN1CCN(CCOc2cc(OC3CCOCC3)c3c(Nc4c(Cl)ccc5c4OCO5)ncnc3c2)CC1 [saracatinib, N-(5-chloro-benzo[d][1,3]dioxol-4-yl)-7-(2-(4-methylpiperazin-1-yl)ethoxy)-5-(tetrahydro-2H-pyran-4-yloxy)quinazolin-4-amine]
benefit in Phase II studies [1]: limited benefit | AT8 (phospho-Tau Ser202/Thr205) immunoreactivity in DG and CA1 [2, 6]: significantly mitigates the increase | CD68 immunoreactivity in Iba1-immunoreactive area of CA3 [2, 6]: almost completely prevented the increase | SV2A immunoreactivity in CA3 [2, 6]: fully rescued the reduction | astrocytosis (GFAP-immunoreactive area in dentate gyrus) [2, 6]: significantly attenuated | gliosis (Iba1, GFAP) in hippocampus, low magnification survey [2, 6]: unaffected | PHF-1 (phospho-Tau Ser396/Ser404) immunoreactive area in CA1 ([2]; 9-month-old PS19 mice, 7 months of treatment, vs Vehicle): significant decrease | PY18 Tau levels ([2]; AZD0530-treated PS19 samples): no change | body weight ([3]; nine-month study): continued weight gain | adverse symptoms ([3]; nine-month study, 0.5, 2 and 5 mg/kg/d, at 8.75 months): no obvious adverse symptoms | Aβ plaque content ([4]; APPswe/PS1ΔE9 mice): No significant changes | synapse density (PSD-95, SV2A) in dentate gyrus ([4]; APPswe/PS1ΔE9 mice): restored to WT control levels | synapse density (PSD-95, SV2A) in dentate gyrus ([4]; WT mice): no change | human daily dose equivalent ([5]; dog 2 mg/kg/d): 50 mg | human dose of equivalent exposure (Cmax and AUC) ([5]; dog 5 mg/kg, saracatinib free base in human): 125 mg | dose dependence of exposure ([5]; dog, multiple dosing, 0.5 to 5 mg/kg oral daily dose): linear

— US11241434B2, “Compositions and methods for improving cognition in a subject” (Yale University, priority 2013, dated 2022)
